Assay results published in the NIST ThermoML archive (doi:10.1021/acs.jced.7b00875).
± gives the expanded uncertainty stated by the source.

How the values were obtained:
[1] = Liquid, Ebulliometric method (Recirculating still)
[2] = refractive index (Na D-line) (dimensionless); details: 293.15 K; 101.33 kPa; Liquid; Standard Abbe refractometry

| Structure (SMILES) | vapor or sublimation pressure ([1]; 328.17 K) | vapor or sublimation pressure ([1]; 338.17 K) | vapor or sublimation pressure ([1]; 348.16 K) | refractive index [2] | vapor or sublimation pressure ([1]; 323.21 K) | vapor or sublimation pressure ([1]; 333.21 K) | vapor or sublimation pressure ([1]; 343.21 K) |
| --- | --- | --- | --- | --- | --- | --- | --- |
| CCCCCCCCCC [decane] | 1.18 ± 0.92 kPa | 1.93 ± 0.92 kPa | 3.24 ± 0.92 kPa | 1.4122 ± 0.002 | – | – | – |
| CCCCCCCCC [nonane] | – | – | – | 1.4074 ± 0.002 | 2.417 ± 0.92 kPa | 4.027 ± 0.92 kPa | 6.331 ± 0.92 kPa |
| CCO [ethanol] | 37.53 ± 0.98 kPa | 58.6 ± 1.1 kPa | 88.83 ± 1.1 kPa | 1.3616 ± 0.002 | 29.58 ± 0.97 kPa | 47.04 ± 1 kPa | 72.39 ± 1.1 kPa |
